ChEMBL document CHEMBL5724914, “Linking interpersonal differences in gut microbiota composition and drug biotransformation activity” (2024)

Key:
[1] = (§1) The drug is tested on Z-026 corresponding to metagenome with ENA study accession number: PRJEB37062 and ENA sample accession number: ERS12561825 for biotransformation under anaerobic condition. The drug concentrations were measured over 9 timepoints collected between 0 and 24 hours of incubation by liquid-chromatography-coupled mass spectrometry (LC–MS); details: 2 µM
[2] = human gut metagenome, 24 h, 2 µM
[3] = human gut metagenome, 24 h, 2 µM; remark: listed apart in the source
[4] = (§2) The drug is tested on Z-024 corresponding to pig gut metagenome with ENA study accession number: PRJEB37062 and ENA sample accession number: ERS12561823 for biotransformation under anaerobic condition. The drug concentrations were measured over 9 timepoints collected between 0 and 24 hours of incubation by liquid-chromatography-coupled mass spectrometry (LC–MS); details: 2 µM
[5] = as §1, with “Z-004” for “Z-026”, “ERS12561804” for “ERS12561825”; details: 2 µM
[6] = as §2, with “WLS-090” for “Z-024”, “human” for “pig”, “ERS12561753” for “ERS12561823”; details: 2 µM
[7] = human gut metagenome, 24 h, 2 µM; remark: listed apart in the source
[8] = human gut metagenome, 24 h, 2 µM; remark: listed apart in the source
[9] = as §2, with “Z-009” for “Z-024”, “ERS12561809” for “ERS12561823”; details: 2 µM
[10] = as §2, with “Z-029” for “Z-024”, “rat” for “pig”, “ERS12561828” for “ERS12561823”; details: 2 µM
[11] = as §2, with “WLS-370” for “Z-024”, “human” for “pig”, “ERS12561793” for “ERS12561823”; details: 2 µM
[12] = as §2, with “Z-022” for “Z-024”, “mouse” for “pig”, “ERS12561821” for “ERS12561823”; details: 2 µM
[13] = as §2, with “WLS-086” for “Z-024”, “human” for “pig”, “ERS12561752” for “ERS12561823”; details: 2 µM
[14] = human gut metagenome, 24 h, 2 µM; remark: listed apart in the source
[15] = as §2, with “WLS-027” for “Z-024”, “human” for “pig”, “ERS12561744” for “ERS12561823”; details: 2 µM
[16] = human gut metagenome, 24 h, 2 µM; remark: listed apart in the source
[17] = human gut metagenome, 24 h, 2 µM; remark: listed apart in the source
[18] = as §2, with “Z-001” for “Z-024”, “mouse” for “pig”, “ERS12561801” for “ERS12561823”; details: 2 µM
[19] = human gut metagenome, 24 h, 2 µM; remark: listed apart in the source
[20] = human gut metagenome, 24 h, 2 µM; remark: listed apart in the source
Also: call rule not given here.

SMILES | Bacterial Biotransformation [1] | Bacterial Biotransformation [2] | Bacterial Biotransformation [3] | Bacterial Biotransformation [4] | Bacterial Biotransformation [5] | Bacterial Biotransformation [6] | Bacterial Biotransformation [7] | Bacterial Biotransformation [8] | Bacterial Biotransformation [9] | Bacterial Biotransformation [10] | Bacterial Biotransformation [11] | Bacterial Biotransformation [12] | Bacterial Biotransformation [13] | Bacterial Biotransformation [14] | Bacterial Biotransformation [15] | Bacterial Biotransformation [16] | Bacterial Biotransformation [17] | Bacterial Biotransformation [18] | Bacterial Biotransformation [19] | Bacterial Biotransformation [20]
COCCc1ccc(OCC(O)CNC(C)C)cc1.COCCc1ccc(OCC(O)CNC(C)C)cc1.O=C(O)C(O)C(O)C(=O)O (stereo not given) [METOPROLOL TARTRATE] | Compound NOT metabolized | Compound NOT metabolized | Compound metabolized | Compound NOT metabolized | Compound NOT metabolized | Compound metabolized | Compound NOT metabolized | Compound NOT metabolized | Compound NOT metabolized | Compound NOT metabolized | Compound metabolized | Compound NOT metabolized | Compound metabolized | Compound NOT metabolized | Compound NOT metabolized | Compound NOT metabolized | Compound metabolized | Compound NOT metabolized | Compound NOT metabolized | Compound metabolized
COc1c(C)c2c(c(O)c1C/C=C(\C)CCC(=O)OCCN1CCOCC1)C(=O)OC2 [MYCOPHENOLATE MOFETIL] | Compound metabolized | Compound metabolized | Compound metabolized | Compound metabolized | Compound metabolized | Compound metabolized | Compound metabolized | Compound metabolized | Compound metabolized | Compound metabolized | Compound metabolized | Compound metabolized | Compound metabolized | Compound metabolized | Compound metabolized | Compound NOT metabolized | Compound metabolized | Compound metabolized | Compound metabolized | Compound metabolized
CCN(CC)CCOC(=O)C(Cc1cccc2ccccc12)CC1CCCO1.O=C(O)C(=O)O (stereo not given) [NAFRONYL OXALATE] | Compound NOT metabolized | Compound NOT metabolized | Compound metabolized | Compound metabolized | Compound metabolized | Compound metabolized | Compound metabolized | Compound metabolized | Compound metabolized | Compound NOT metabolized | Compound NOT metabolized | Compound metabolized | Compound metabolized | Compound metabolized | Compound metabolized | Compound metabolized | Compound metabolized | Compound NOT metabolized | Compound metabolized | Compound metabolized
C=CCN1CC[C@]23c4c5ccc(O)c4O[C@H]2C(=O)CC[C@@]3(O)[C@H]1C5 [NALOXONE] | Compound NOT metabolized | Compound NOT metabolized | Compound NOT metabolized | Compound NOT metabolized | Compound NOT metabolized | Compound NOT metabolized | Compound NOT metabolized | Compound NOT metabolized | Compound NOT metabolized | Compound NOT metabolized | Compound NOT metabolized | Compound NOT metabolized | Compound NOT metabolized | Compound metabolized | Compound NOT metabolized | Compound NOT metabolized | Compound NOT metabolized | Compound metabolized | Compound NOT metabolized | Compound NOT metabolized
CCc1nn(CCCN2CCN(c3cccc(Cl)c3)CC2)c(=O)n1CCOc1ccccc1 [NEFAZODONE] | Compound NOT metabolized | Compound NOT metabolized | Compound NOT metabolized | Compound NOT metabolized | Compound NOT metabolized | Compound metabolized | Compound metabolized | Compound metabolized | Compound NOT metabolized | Compound NOT metabolized | Compound NOT metabolized | Compound NOT metabolized | Compound metabolized | Compound metabolized | Compound metabolized | Compound metabolized | Compound metabolized | Compound NOT metabolized | Compound metabolized | Compound metabolized
CN1CCOC(c2ccccc2)c2ccccc2C1 (stereo not given) [NEFOPAM] | Compound NOT metabolized | Compound NOT metabolized | Compound NOT metabolized | Compound NOT metabolized | Compound NOT metabolized | Compound metabolized | Compound NOT metabolized | Compound NOT metabolized | Compound NOT metabolized | Compound NOT metabolized | Compound metabolized | Compound NOT metabolized | Compound metabolized | Compound NOT metabolized | Compound metabolized | Compound NOT metabolized | Compound metabolized | Compound NOT metabolized | Compound metabolized | Compound metabolized
Cc1ccnc2c1NC(=O)c1cccnc1N2C1CC1 [NEVIRAPINE] | Compound NOT metabolized | Compound NOT metabolized | Compound metabolized | Compound NOT metabolized | Compound NOT metabolized | Compound metabolized | Compound NOT metabolized | Compound NOT metabolized | Compound NOT metabolized | Compound NOT metabolized | Compound metabolized | Compound NOT metabolized | Compound metabolized | Compound NOT metabolized | Compound NOT metabolized | Compound NOT metabolized | Compound metabolized | Compound NOT metabolized | Compound metabolized | Compound metabolized
